Experimental data reported in patent US20220025053A1, “Methods of Inhibiting Metastasis in Cancer” (Wisconsin Alumni Research Foundation, priority 2018, published 2022).
“Also recorded” adds a separate entry of the source.

Legend:
P-selectin [1] = biological target: T1, P-selectin (Homo sapiens, UniProt P16109); assay: HGSOC adhesion to LP-9 mesothelial cells in co-culture device, P-selectin inhibition; assay type: cell-based; design: endogenous in cells; host or cells: LP-9 mesothelial cells; details: LP-9 + 100 ng/mL MIP-1β; 10 μM KF38789 1 hour before tumor cells; 3 h adhesion
T1 sequence (P16109 42-830): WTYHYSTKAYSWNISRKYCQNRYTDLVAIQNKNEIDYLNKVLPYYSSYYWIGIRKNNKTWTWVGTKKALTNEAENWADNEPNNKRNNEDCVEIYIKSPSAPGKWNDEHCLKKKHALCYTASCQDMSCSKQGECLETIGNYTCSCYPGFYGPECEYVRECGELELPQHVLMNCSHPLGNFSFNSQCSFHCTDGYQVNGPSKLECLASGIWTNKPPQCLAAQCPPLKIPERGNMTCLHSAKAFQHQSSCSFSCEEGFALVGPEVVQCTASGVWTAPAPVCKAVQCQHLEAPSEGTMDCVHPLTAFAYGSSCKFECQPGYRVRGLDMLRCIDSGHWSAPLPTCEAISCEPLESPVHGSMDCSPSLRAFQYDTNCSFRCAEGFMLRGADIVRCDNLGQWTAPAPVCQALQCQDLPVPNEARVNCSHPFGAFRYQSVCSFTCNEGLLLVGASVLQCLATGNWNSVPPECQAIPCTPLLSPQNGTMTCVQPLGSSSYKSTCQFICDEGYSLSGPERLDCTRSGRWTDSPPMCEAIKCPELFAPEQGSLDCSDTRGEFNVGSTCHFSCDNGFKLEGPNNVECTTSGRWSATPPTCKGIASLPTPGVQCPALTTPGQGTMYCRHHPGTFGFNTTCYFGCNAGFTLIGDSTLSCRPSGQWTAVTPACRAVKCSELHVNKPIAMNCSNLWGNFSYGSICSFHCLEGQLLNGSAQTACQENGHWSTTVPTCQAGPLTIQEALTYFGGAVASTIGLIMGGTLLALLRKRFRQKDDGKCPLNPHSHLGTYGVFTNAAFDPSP
From the text: (§1) In vitro model of adhesion in transcoelomic metastasis: A co-culture device was modified to construct the in vitro model of metastatic adhesion (FIG. 2). The device includes a PDMS ring that is placed in a well of a 24 well tissue culture plate and a 9×9 mm coverslip placed on top. One or more cell types can be grown within the ring, while another population can be grown on the coverslip. Inverting the coverslip on top of the ring initiates co-culture between the populations. The tissue culture plastic within the PDMS ring was coated with 1 μg of PureCol® Collagen I (Advanced Biomatrix; San Diego, Calif.) for 2 hours at room temperature. LP-9 or LP-3 were seeded into the PDMS rings to confluency (93,500 cells/cm^2 in 40 μL). Twenty-four hours after seeding, cells were washed with SFM, AAM or control coverslips were placed on top of the PDMS ring, and 40 μL of fresh SFM was added. HGSOC cells were stained with 5 μM CellTracker™ Green CMFDA Dye, dissociated using TrypLE™ Select Enzyme, and seeded into devices at 10,000 cells/10 μL after 24 hours of mesothelial cells and AAMs co-culture. […] Percent adhesion was quantified by converting cells/image to total cells/area of the co-culture device and dividing by the number of HGSOC cells added to the device.

P-selectin [2] = biological target: T1, P-selectin; assay: Colorectal cancer cell adhesion to MIP-1β-treated LP-9; assay type: cell-based; design: endogenous in cells; host or cells: LP-9 mesothelial cells; details: LS411N, SW48; 100 ng/mL MIP-1β; KF38789 10 μM
Method: The experimental methods are reflective of those previously used to inhibit P-selectin, while used in an adhesion experiment with the colorectal cell lines LS411N and SW48.
The tissue culture plastic within the PDMS ring was coated with 1 μg of PureCol® Collagen I for 2 hours at room temperature. LP-9 were seeded into the PDMS rings to confluency (93,500 cells/cm^2 in 40 μL). Twenty-four hours after seeding, cells were washed with SFM, and 40 μL of fresh SFM containing either vehicle (0.1% BSA) or 100 ng/mL MIP-1β was added for 24 hours. To determine if P-selectin played a role in adhesion, LP-9 were treated with 10 μM of the small molecule P-selectin inhibitor KF38789 or DMSO (0.0005% v/v) 1 hour prior to the addition of colorectal cancer cells. The colorectal cancer cells (LS411N, SW48) were stained with 5 μM CellTracker™ Green CMFDA Dye, dissociated using TrypLE Select Enzyme, and seeded into devices at 10,000 cells/10 μL after 24 hours of mesothelial cell treatment with MIP-1β. Colorectal cancer cells were allowed to adhere for three hours, then coverslips were removed, and devices were washed twice with 2 mL PBS to remove non-adherent cells. […] Percent adhesion was quantified by converting cells/image to total cells/area of the co-culture device and dividing by the number of HGSOC cells added to the device.

MEK = assay: SELP expression in LP-9 by qRT-PCR, MEK inhibition; assay type: cell-based, human; details: both vehicle and 100 ng/mL MIP-1β treated LP-9, 10 μM PD0325901, 24 hours
From the text: (§2) RNA extraction and qRT-PCR: RNA was collected and isolated using the Micro-RNeasy® Extraction kit (Qiagen; Valencia, Calif.), and cDNA was synthesized using the Qiagen® First Strand Kit according to manufacturer's instructions. cDNA was mixed with Qiagen® Mastermix and assayed using the Extracellular Matrix and Adhesion Molecules RT2 Profiler PCR Array (Qiagen) in a CFX real time PCR machine (Bio-Rad; Hercules, Calif.) for a total of 40 cycles, using Qiagen's Data Analysis Center for analysis. Data is expressed as fold change, with ±2-fold set as the threshold for significance. qRT-PCR was performed using human primers for SELP, CCR1, and CCR5, and GAPDH (all Qiagen), and mouse primers for Selp (Qiagen) and Aes (IDT; Coralville, Iowa), with SsoAdvanced™ Universal SYBR® Green Supermix (Bio-Rad). Three samples were run in duplicate from each condition.
(§3) Interventions in co-culture model: To determine if P-selectin played a role in adhesion, LP-9 in co-culture devices were treated with 10 μg/mL of anti-P-selectin blocking antibody or monoclonal mouse IgG1 isotype (BioLegend; San Diego, Calif.), or 10 μM of the small molecular inhibitor KF38789 (Tocris; Minneapolis, Minn.) or DMSO (0.0005% v/v) 1 hour prior to the addition of ovarian cancer cells. […]

ovarian cancer xenograft = details: clodronate to reduce macrophage levels; cited from earlier work
HGSOC = details: mouse models of HGSOC; cited from earlier work
CCR5 = CCR5 (Homo sapiens, UniProt P51681); assay: SELP expression in LP-9 by qRT-PCR, CCR5 inhibition; assay type: cell-based; details: 100 ng/mL MIP-1β + 10 μg/mL maraviroc, 24 hours
From the text: as §2, §3

[3] = administered systemically; cited from earlier work
P-selectin [4] = biological target: T1, P-selectin; details: clinical trial; cited from earlier work
P-selectin [5] = biological target: T1, P-selectin; details: cited from earlier work
LP-9 mesothelial cells = assay: HGSOC adhesion to LP-9 treated with MIP-1β; assay type: cell-based, human; details: 100 ng/mL MIP-1β 24 hours, all HGSOC lines
From the text: as §1

Sequence of CCR5 (P51681 whole entry): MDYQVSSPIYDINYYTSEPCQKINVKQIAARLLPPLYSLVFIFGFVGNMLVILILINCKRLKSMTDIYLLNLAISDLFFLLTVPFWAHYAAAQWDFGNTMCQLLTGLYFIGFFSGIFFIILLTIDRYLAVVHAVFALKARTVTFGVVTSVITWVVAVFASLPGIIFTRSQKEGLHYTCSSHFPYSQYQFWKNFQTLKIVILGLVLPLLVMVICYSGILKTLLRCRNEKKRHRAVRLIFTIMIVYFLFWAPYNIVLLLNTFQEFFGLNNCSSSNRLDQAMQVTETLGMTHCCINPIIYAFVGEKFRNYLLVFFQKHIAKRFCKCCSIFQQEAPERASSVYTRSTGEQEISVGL

## COc1ccc(C2CC(c3c(O)cc(C)oc3=O)=NCCS2)c(OC)c1 (stereo not drawn) [KF38789, reference compound]
P-selectin [1]
  HGSOC adhesion to LP-9 increased by MIP-1β: abrogated the increased adhesion
P-selectin [2]
  Colorectal cancer cell adhesion to LP-9 increased by MIP-1β: abrogates the increased adhesion

## O=C(NOC[C@H](O)CO)c1ccc(F)c(F)c1Nc1ccc(I)cc1F [PD0325901]
MEK
  SELP expression in LP-9: significantly decreased SELP expression

## O=P(O)(O)C(Cl)(Cl)P(=O)(O)O [clodronate]
Ovarian cancer xenograft
  Metastasis: decreased metastasis

## IL-1ra: AAM-secreted ligand IL-1ra
HGSOC
  Extent of metastasis: decrease the extent of metastasis

## Maraviroc
CCR5
  MIP-1β-stimulated SELP expression in LP-9: effective in inhibiting MIP-1β-stimulated expression of SELF
CCR5; listed as maraviroc
  MIP-1β-stimulated SELP expression in LP-9: negated SELP upregulation; also recorded: inhibited the upregulation of SELP

## inclacumab
[3]
  Tolerability in patients: well tolerated
P-selectin [4]
  Efficacy for saphenous vein graft failure following coronary artery bypass surgery: surgery (94-96). While inclacumab had low efficacy for this

B1: crizanlizumab (antibody, chains of the INN, looked up, V domains shown)
VH: QVQLVQSGAEVKKPGASVKVSCKVSGYTFTSYDINWVRQAPGKGLEWMGWIYPGDGSIKYNEKFKGRVTMTVDKSTDTAYMELSSLRSEDTAVYYCARRGEYGNYEGAMDYWGQGTLVTVSS
VL: DIQMTQSPSSLSASVGDRVTITCKASQSVDYDGHSYMNWYQQKPGKAPKLLIYAASNLESGVPSRFSGSGSGTDFTLTISSLQPEDFATYYCQQSDENPLTFGGGTKVEIK
notes: monoclonal antibody against P-selectin
[3]
  Tolerability in patients: well tolerated
P-selectin [5]
  Effect on P-selectin-ligand binding: not only block ligand binding but also disrupt existing P-selectin-ligand interactions

B2: MIP-1β: recombinant chemokine MIP-1β (Peprotech; recombinant mouse MIP-1β in vivo) (protein, UniProt P13236 24-92, looked up)
C-C motif chemokine 4: APMGSDPPTACCFSYTARKLPRNFVVDYYETSSLCSQPAVVFQTKRSKQVCADPSESWVQEYVYDLELN
LP-9 mesothelial cells
  HGSOC adhesion to LP-9 treated with MIP-1β: significantly increased adhesion
